According to PubChem BioAssay (NCI):
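Assay format: 96-well plates, 48-hour exposure. Here, GI50 denotes the concentration required for 50% inhibition of growth. TGI: concentration producing complete growth inhibition.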

Key:
Assay in all cases: NCI anticancer screen, dose series, 48 h
786-0 renal = test system: 786-0 renal
A498 renal = test system: A498 renal
A549 NSCLC = test system: A549 NSCLC
ACHN renal = test system: ACHN renal
BT-549 breast = test system: BT-549 breast
CAKI-1 renal = test system: CAKI-1 renal
CCRF-CEM leukemia = test system: CCRF-CEM leukemia
COLO 205 colon = test system: COLO 205 colon
DU-145 prostate = test system: DU-145 prostate
EKVX NSCLC = test system: EKVX NSCLC
HCC-2998 colon = test system: HCC-2998 colon
HCT-116 colon = test system: HCT-116 colon
HCT-15 colon = test system: HCT-15 colon
HL-60(TB) leukemia = test system: HL-60(TB) leukemia
HOP-62 NSCLC = test system: HOP-62 NSCLC
HOP-92 NSCLC = test system: HOP-92 NSCLC
HS 578T breast = test system: HS 578T breast
HT29 colon = test system: HT29 colon
IGROV1 ovarian = test system: IGROV1 ovarian
K-562 leukemia = test system: K-562 leukemia
KM12 colon = test system: KM12 colon
LOX IMVI melanoma = test system: LOX IMVI melanoma
M14 melanoma = test system: M14 melanoma
MALME-3M melanoma = test system: MALME-3M melanoma
MCF7 breast = test system: MCF7 breast
MDA-MB-231 breast = test system: MDA-MB-231 breast
MDA-MB-435 = test system: MDA-MB-435
MDA-MB-468 breast = test system: MDA-MB-468 breast
MOLT-4 leukemia = test system: MOLT-4 leukemia
NCI-H226 lung = test system: NCI-H226 lung
NCI-H23 lung = test system: NCI-H23 lung
NCI-H460 lung = test system: NCI-H460 lung
NCI-H522 lung = test system: NCI-H522 lung
NCI/ADR-RES ovarian = test system: NCI/ADR-RES ovarian
OVCAR-3 ovarian = test system: OVCAR-3 ovarian
OVCAR-4 ovarian = test system: OVCAR-4 ovarian
OVCAR-5 ovarian = test system: OVCAR-5 ovarian
OVCAR-8 ovarian = test system: OVCAR-8 ovarian
PC-3 prostate = test system: PC-3 prostate
RPMI-8226 leukemia = test system: RPMI-8226 leukemia
RXF 393 renal = test system: RXF 393 renal
SF-268 CNS = test system: SF-268 CNS
SF-295 CNS = test system: SF-295 CNS
SF-539 CNS = test system: SF-539 CNS
SK-MEL-2 melanoma = test system: SK-MEL-2 melanoma
SK-MEL-28 melanoma = test system: SK-MEL-28 melanoma
SK-MEL-5 melanoma = test system: SK-MEL-5 melanoma
SK-OV-3 ovarian = test system: SK-OV-3 ovarian
SN12C renal = test system: SN12C renal
SNB-19 CNS = test system: SNB-19 CNS
SNB-75 CNS = test system: SNB-75 CNS
SR leukemia = test system: SR leukemia
SW-620 colon = test system: SW-620 colon
T-47D breast = test system: T-47D breast
TK-10 renal = test system: TK-10 renal
U251 CNS = test system: U251 CNS
UACC-257 melanoma = test system: UACC-257 melanoma
UACC-62 melanoma = test system: UACC-62 melanoma
UO-31 renal = test system: UO-31 renal

CCOC(=O)c1ccc(NC(=O)CSC(CC(=O)c2sc(Nc3ccccn3)nc2C)c2ccccc2F)cc1 (stereo not drawn)
GI50 (786-0 renal): 24.8 µM
TGI (786-0 renal): > 100 µM
GI50 (A498 renal): 69.2 µM
TGI (A498 renal): > 100 µM
GI50 (A549 NSCLC): 75.7 µM
TGI (A549 NSCLC): > 100 µM
GI50 (ACHN renal): 45.6 µM
TGI (ACHN renal): > 100 µM
GI50 (BT-549 breast): 14.7 µM
TGI (BT-549 breast): 81.5 µM
GI50 (CAKI-1 renal): 11.5 µM
TGI (CAKI-1 renal): > 100 µM
GI50 (CCRF-CEM leukemia): 18.6 µM
TGI (CCRF-CEM leukemia): > 100 µM
GI50 (COLO 205 colon): > 100 µM
TGI (COLO 205 colon): > 100 µM
GI50 (DU-145 prostate): 67.2 µM
TGI (DU-145 prostate): > 100 µM
GI50 (EKVX NSCLC): 19 µM
TGI (EKVX NSCLC): > 100 µM
GI50 (HCC-2998 colon): 23.1 µM
TGI (HCC-2998 colon): > 100 µM
GI50 (HCT-116 colon): 23 µM
TGI (HCT-116 colon): > 100 µM
GI50 (HCT-15 colon): 25.8 µM
TGI (HCT-15 colon): > 100 µM
GI50 (HL-60(TB) leukemia): 21.4 µM
TGI (HL-60(TB) leukemia): > 100 µM
GI50 (HOP-62 NSCLC): 37.5 µM
TGI (HOP-62 NSCLC): > 100 µM
GI50 (HOP-92 NSCLC): 12.5 µM
TGI (HOP-92 NSCLC): > 100 µM
GI50 (HS 578T breast): 14.9 µM
TGI (HS 578T breast): 94.8 µM
GI50 (HT29 colon): 58.3 µM
TGI (HT29 colon): > 100 µM
GI50 (IGROV1 ovarian): 12.1 µM
TGI (IGROV1 ovarian): 83.3 µM
GI50 (K-562 leukemia): 30.4 µM
TGI (K-562 leukemia): > 100 µM
GI50 (KM12 colon): 55.6 µM
TGI (KM12 colon): > 100 µM
GI50 (LOX IMVI melanoma): 0.312 µM
TGI (LOX IMVI melanoma): > 100 µM
GI50 (M14 melanoma): 19.4 µM
TGI (M14 melanoma): > 100 µM
GI50 (MALME-3M melanoma): 25.4 µM
TGI (MALME-3M melanoma): > 100 µM
GI50 (MCF7 breast): 15.4 µM
TGI (MCF7 breast): > 100 µM
GI50 (MDA-MB-231 breast): 19.3 µM
TGI (MDA-MB-231 breast): > 100 µM
GI50 (MDA-MB-435): 26.3 µM
TGI (MDA-MB-435): > 100 µM
GI50 (MDA-MB-468 breast): 4.24 µM
TGI (MDA-MB-468 breast): 44.3 µM
GI50 (MOLT-4 leukemia): 32.2 µM
TGI (MOLT-4 leukemia): > 100 µM
GI50 (NCI-H226 lung): 2.52 µM
TGI (NCI-H226 lung): 85.9 µM
GI50 (NCI-H23 lung): 22.7 µM
TGI (NCI-H23 lung): > 100 µM
GI50 (NCI-H460 lung): 31.2 µM
TGI (NCI-H460 lung): > 100 µM
GI50 (NCI-H522 lung): 21.6 µM
TGI (NCI-H522 lung): > 100 µM
GI50 (NCI/ADR-RES ovarian): 24.1 µM
TGI (NCI/ADR-RES ovarian): > 100 µM
GI50 (OVCAR-3 ovarian): 31.7 µM
TGI (OVCAR-3 ovarian): > 100 µM
GI50 (OVCAR-4 ovarian): 66.1 µM
TGI (OVCAR-4 ovarian): > 100 µM
GI50 (OVCAR-5 ovarian): 74.4 µM
TGI (OVCAR-5 ovarian): > 100 µM
GI50 (OVCAR-8 ovarian): 53.6 µM
TGI (OVCAR-8 ovarian): > 100 µM
GI50 (PC-3 prostate): 23.8 µM
TGI (PC-3 prostate): > 100 µM
GI50 (RPMI-8226 leukemia): 8.29 µM
TGI (RPMI-8226 leukemia): > 100 µM
GI50 (RXF 393 renal): 2.59 µM
TGI (RXF 393 renal): 23.5 µM
GI50 (SF-268 CNS): 43.1 µM
TGI (SF-268 CNS): > 100 µM
GI50 (SF-295 CNS): 32.2 µM
TGI (SF-295 CNS): > 100 µM
GI50 (SF-539 CNS): 32.5 µM
TGI (SF-539 CNS): > 100 µM
GI50 (SK-MEL-2 melanoma): 44.9 µM
TGI (SK-MEL-2 melanoma): > 100 µM
GI50 (SK-MEL-28 melanoma): 38.7 µM
TGI (SK-MEL-28 melanoma): > 100 µM
GI50 (SK-MEL-5 melanoma): 18.6 µM
TGI (SK-MEL-5 melanoma): 82 µM
GI50 (SK-OV-3 ovarian): 26 µM
TGI (SK-OV-3 ovarian): > 100 µM
GI50 (SN12C renal): 28 µM
TGI (SN12C renal): > 100 µM
GI50 (SNB-19 CNS): 36.9 µM
TGI (SNB-19 CNS): > 100 µM
GI50 (SNB-75 CNS): 3.59 µM
TGI (SNB-75 CNS): 48.8 µM
GI50 (SR leukemia): 24.1 µM
TGI (SR leukemia): > 100 µM
GI50 (SW-620 colon): 75.3 µM
TGI (SW-620 colon): > 100 µM
GI50 (T-47D breast): 18 µM
TGI (T-47D breast): > 100 µM
GI50 (TK-10 renal): 82.3 µM
TGI (TK-10 renal): > 100 µM
GI50 (U251 CNS): 47.8 µM
TGI (U251 CNS): > 100 µM
GI50 (UACC-257 melanoma): 38.4 µM
TGI (UACC-257 melanoma): > 100 µM
GI50 (UACC-62 melanoma): 16.1 µM
TGI (UACC-62 melanoma): > 100 µM
GI50 (UO-31 renal): 3.19 µM
TGI (UO-31 renal): > 100 µM
